Data reported in patent US20250163104A1, “MACROCYCLIC IMMUNOMODULATORS” (priority 2021, published 2025).
Where a SMILES comes first, the peptide text is derived from it. Bridges are numbered along the chain shown (N, C = ends). [ ]: non-standard residue; d: D form. The star is where a group is joined. Phe(3-CF3) = N[C@@H](Cc1cccc(C(F)(F)F)c1)C(=O)O; Tyr(3,5-F2) = N[C@@H](Cc1cc(F)c(O)c(F)c1)C(=O)O; Ala(morpholin-4-yl) = N[C@@H](CN1CCOCC1)C(=O)O; Phe(4-COOH) = N[C@@H](Cc1ccc(C(=O)O)cc1)C(=O)O; Bip = N[C@@H](Cc1ccc(-c2ccccc2)cc1)C(=O)O; Orn(N3) = [N-]=[N+]=NCCC[C@H](N)C(=O)O; Phe(3-F) = N[C@@H](Cc1cccc(F)c1)C(=O)O; Phe(3-Me) = Cc1cccc(C[C@H](N)C(=O)O)c1; Val(3-OH) = CC(C)(O)[C@H](N)C(=O)O; hPhe = N[C@@H](CCc1ccccc1)C(=O)O; 4Pal = N[C@@H](Cc1ccncc1)C(=O)O; Cha = N[C@@H](CC1CCCCC1)C(=O)O; Cit = NC(=O)NCCC[C@H](N)C(=O)O; hSer = N[C@@H](CCO)C(=O)O; Carboxymethyl = O=C(O)C*; Orn = NCCC[C@H](N)C(=O)O; Dab = NCC[C@H](N)C(=O)O; Dap = NC[C@H](N)C(=O)O; Piv = CC(C)(C)C(=O)*; Propargyl = C#CC*

Molecular target: T1, human PD-1 / PD-L1-Ig binding on Jurkat cell line over-expressing human PD-1 (Jurkat-PD-1) (Homo sapiens, UniProt Q15116)
T1 construct: expressed in transfected cells; host or cells: Jurkat
Assay: Jurkat-PD-1 Cell Binding High-Content Screening Assay (CBA)
Format: cell-based
Conditions: Jurkat-PD-1 cells, PE-labeled PD-L1-Ig 20 nM final; read-out: Jurkat HPD1_PDL1 IC50
Summary of the method: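 PE-PD-L1-Ig 20 nM final; cells in DMEM/10% FCS; cpd pre-incubation 2 h, 37° C; ligand 1 h; PFA fix + Hoechst 33342; high-content imaging read-out.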

T1 sequence (Q15116 25-288): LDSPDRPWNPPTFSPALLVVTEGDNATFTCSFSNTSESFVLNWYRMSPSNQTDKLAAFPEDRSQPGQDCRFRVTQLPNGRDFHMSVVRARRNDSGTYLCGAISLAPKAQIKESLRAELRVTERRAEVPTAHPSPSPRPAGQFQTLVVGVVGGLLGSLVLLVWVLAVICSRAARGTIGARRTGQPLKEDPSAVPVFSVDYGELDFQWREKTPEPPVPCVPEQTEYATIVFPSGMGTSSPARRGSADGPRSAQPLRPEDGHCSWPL

SMILES | IC50 [nM]
Cc1cccc(C[C@@H]2NC(=O)[C@H](CC(=O)O)NC(=O)[C@H](Cc3ccc(C(=O)O)cc3)NC(=O)[C@H](Cc3ccc(OCC(=O)O)cc3)NC(=O)CSC[C@@H](C(=O)N[C@@H](C)C(N)=O)NC(=O)[C@H]([C@@H](C)O)NC(=O)[C@H](C(C)C)NC(=O)[C@H](CC(C)C)NC(=O)[C@H](CCN)NC(=O)[C@@H](CC(C)C)NC(=O)[C@H](CCCN)NC(=O)[C@H](C(C)C)NC(=O)[C@H](Cc3ccc(-c4ccccc4)cc3)NC(=O)[C@H](C(C)C)NC2=O)c1 [Compound 1221] ({CH2CO}-Y(Carboxymethyl)[Phe(4-COOH)]D[Phe(3-Me)]V[Bip]V[Orn][dL][Dab]LVTCA-NH2; thioether N-14) | 3
Cc1cccc(C[C@@H]2NC(=O)[C@H](CC(=O)O)NC(=O)[C@H](Cc3ccc(OCC(=O)O)cc3)NC(=O)[C@H](CN)NC(=O)CSC[C@@H](C(=O)N[C@@H](CCNC(=O)C(C)(C)C)C(N)=O)NC(=O)[C@H](CCCN)NC(=O)[C@H](C(C)C)NC(=O)[C@H](CC3CCCCC3)NC(=O)[C@H](CCN)NC(=O)[C@@H](CC(C)C)NC(=O)[C@H](CCCN)NC(=O)[C@H](Cc3ccc(O)cc3)NC(=O)[C@H](Cc3ccc(-c4ccccc4)cc3)NC(=O)[C@H](Cc3ccc(O)cc3)NC2=O)c1 [Compound 2042] ({CH2CO}-[Dap]Y(Carboxymethyl)D[Phe(3-Me)]Y[Bip]Y[Orn][dL][Dab][Cha]V[Orn]C[Dab](Piv)-NH2; thioether N-14) | 6.5
CC(C)C[C@H]1NC(=O)[C@H](CCCN)NC(=O)[C@H](CCCNC(N)=O)NC(=O)[C@H](Cc2ccc(-c3ccccc3)cc2)NC(=O)[C@H](C(C)C)NC(=O)[C@H](Cc2c[nH]c3ccccc23)NC(=O)[C@H](CC(=O)O)NC(=O)[C@H](Cc2ccc(OCC(=O)O)cc2)NC(=O)[C@H](CN)NC(=O)CSC[C@@H](C(=O)N[C@@H](C)C(N)=O)NC(=O)[C@H](C(C)C)NC(=O)[C@H](C(C)C)NC(=O)[C@H](CC2CCCCC2)NC(=O)[C@H](CCN)NC1=O [Compound 1319] ({CH2CO}-[Dap]Y(Carboxymethyl)DWV[Bip][Cit][Orn][dL][Dab][Cha]VVCA-NH2; thioether N-14) | 49.7
C#CCOc1ccc(C[C@@H]2NC(=O)[C@H](CN)NC(=O)CSC[C@@H](C(=O)N[C@@H](CCCN=[N+]=[N-])C(N)=O)NC(=O)[C@H]([C@@H](C)O)NC(=O)[C@H](C(C)C)NC(=O)[C@H](CC3CCCCC3)NC(=O)[C@H](CCN)NC(=O)[C@@H](CC(C)C)NC(=O)[C@H](CCCN)NC(=O)[C@H](CCC(=O)O)NC(=O)[C@H](Cc3ccc(-c4ccccc4)cc3)NC(=O)[C@H](C(C)C)NC(=O)[C@H](Cc3c[nH]c4ccccc34)NC(=O)[C@H](CC(=O)O)NC2=O)cc1 [Compound 1537] ({CH2CO}-[Dap]Y(Propargyl)DWV[Bip]E[Orn][dL][Dab][Cha]VTC[Orn(N3)]-NH2; thioether N-14) | 101
CC(C)C[C@H]1NC(=O)[C@H](CCCN)NC(=O)[C@H](CCCCN)NC(=O)[C@H](Cc2ccc(-c3ccccc3)cc2)NC(=O)[C@H](C(C)C)NC(=O)[C@H](Cc2c[nH]c3ccccc23)NC(=O)[C@H](CC(=O)O)NC(=O)[C@H](Cc2ccc(O)cc2)NC(=O)[C@H](CC(N)=O)NC(=O)CSC[C@@H](C(=O)N[C@@H](C)C(N)=O)NC(=O)[C@H]([C@@H](C)O)NC(=O)[C@H](C(C)C)NC(=O)[C@H](CC2CCCCC2)NC(=O)[C@H](CCN)NC1=O [Compound 1381] ({CH2CO}-NYDWV[Bip]K[Orn][dL][Dab][Cha]VTCA-NH2; thioether N-14) | 13.3
Cc1cccc(C[C@@H]2NC(=O)[C@H](CC(=O)O)NC(=O)[C@H](Cc3ccc(C(=O)O)cc3)NC(=O)[C@H](Cc3ccncc3)NC(=O)CSC[C@@H](C(=O)N[C@@H](CCN)C(N)=O)NC(=O)[C@H]([C@@H](C)O)NC(=O)[C@H](C(C)C)NC(=O)[C@H](CC3CCCCC3)NC(=O)[C@H](CCN)NC(=O)[C@@H](CC(C)C)NC(=O)[C@H](CCCN)NC(=O)[C@H](Cc3ccc(OCC(=O)O)cc3)NC(=O)[C@H](Cc3ccc(-c4ccccc4)cc3)NC(=O)[C@H](Cc3ccc(OCC(=O)O)cc3)NC2=O)c1 [Compound 2306] ({CH2CO}-[4Pal][Phe(4-COOH)]D[Phe(3-Me)]Y(Carboxymethyl)[Bip]Y(Carboxymethyl)[Orn][dL][Dab][Cha]VTC[Dab]-NH2; thioether N-14) | 7.1
CC[C@H](C)[C@@H]1NC(=O)[C@H](Cc2ccc(-c3ccccc3)cc2)NC(=O)[C@H](C(C)C)NC(=O)[C@H](Cc2c[nH]c3ccccc23)NC(=O)[C@H](CC(=O)O)NC(=O)[C@H](Cc2ccc(OCC(=O)O)cc2)NC(=O)[C@H](Cc2ccc(OCC(=O)O)cc2)NC(=O)CSC[C@@H](C(=O)N[C@@H](C)C(N)=O)NC(=O)[C@H]([C@@H](C)O)NC(=O)[C@H](C(C)C)NC(=O)[C@H](Cc2cccc(F)c2)NC(=O)[C@H](CCN)NC(=O)[C@@H](CC(C)C)NC(=O)[C@H](CCCN)NC1=O [Compound 1671] ({CH2CO}-Y(Carboxymethyl)Y(Carboxymethyl)DWV[Bip]I[Orn][dL][Dab][Phe(3-F)]VTCA-NH2; thioether N-14) | 22.9
CC(C)C[C@H]1NC(=O)[C@H](CCCN)NC(=O)[C@H](C(C)C)NC(=O)[C@H](Cc2ccc(-c3ccccc3)cc2)NC(=O)[C@H](C(C)C)NC(=O)[C@H](Cc2cc(F)c(O)c(F)c2)NC(=O)[C@H](CC(=O)O)NC(=O)[C@H](Cc2ccc(OCC(=O)O)cc2)NC(=O)[C@H](CN)NC(=O)CSC[C@@H](C(=O)N[C@@H](CCN)C(N)=O)NC(=O)[C@H](CCCCN)NC(=O)[C@H](C(C)C)NC(=O)[C@H](CC2CCCCC2)NC(=O)[C@H](CCN)NC1=O [Compound 2034] ({CH2CO}-[Dap]Y(Carboxymethyl)D[Tyr(3,5-F2)]V[Bip]V[Orn][dL][Dab][Cha]VKC[Dab]-NH2; thioether N-14) | 84.1
COCC[C@@H]1NC(=O)CSC[C@@H](C(=O)N[C@@H](CCN)C(N)=O)NC(=O)[C@H](CO)NC(=O)[C@H](C(C)(C)O)NC(=O)[C@H](CC2CCCCC2)NC(=O)[C@H](CCN)NC(=O)[C@@H](CC(C)C)NC(=O)[C@H](CCCN)NC(=O)[C@H](Cc2ccc(OCC(=O)O)cc2)NC(=O)[C@H](Cc2ccc(-c3ccccc3)cc2)NC(=O)[C@H](Cc2ccc(OCC(=O)O)cc2)NC(=O)[C@H](Cc2cccc(C)c2)NC(=O)[C@H](CC(=O)O)NC(=O)[C@H](Cc2ccc(C(=O)O)cc2)NC1=O [Compound 2079] ({CH2CO}-[hSer](Me)[Phe(4-COOH)]D[Phe(3-Me)]Y(Carboxymethyl)[Bip]Y(Carboxymethyl)[Orn][dL][Dab][Cha][Val(3-OH)]SC[Dab]-NH2; thioether N-14) | 6.3
CCC(C)[C@@H]1NC(=O)[C@H](Cc2ccc(-c3ccccc3)cc2)NC(=O)[C@H](C(C)C)NC(=O)[C@H](Cc2cccc(C)c2)NC(=O)[C@H](CC(=O)O)NC(=O)[C@H](Cc2ccc(-c3cccc(C(=O)O)c3)cc2)NC(=O)[C@H](CN)NC(=O)CSC[C@@H](C(=O)N[C@@H](C)C(N)=O)NC(=O)[C@H]([C@@H](C)O)NC(=O)[C@H](C(C)C)NC(=O)[C@H](CC2CCCCC2)NC(=O)[C@H](CCN)NC(=O)[C@@H](CC(C)C)NC(=O)[C@H](CCCN)NC1=O (some centres unmarked) [Compound 2224] | 14.1
CC(C)C[C@@H]1NC(=O)[C@H](CCCCN)NC(=O)[C@@H](CC(C)C)NC(=O)[C@H](CCN)NC(=O)[C@H](Cc2cnc[nH]2)NC(=O)[C@H](Cc2ccc(-c3ccccc3)cc2)NC(=O)[C@H](C(C)C)NC(=O)[C@H](Cc2c[nH]c3ccccc23)NC(=O)[C@H](CC(=O)O)NC(=O)[C@H](Cc2ccc(O)cc2)NC(=O)[C@H](CC(N)=O)NC(=O)CSC[C@@H](C(=O)N[C@@H](C)C(N)=O)NC(=O)[C@H]([C@@H](C)O)NC(=O)[C@H](C(C)C)NC1=O [Compound 1137] ({CH2CO}-NYDWV[Bip]H[Dab][dL]KLVTCA-NH2; thioether N-14) | 47
CC(C)C[C@@H]1NC(=O)[C@H](Cc2c[nH]c3ccccc23)NC(=O)[C@H](CC(=O)O)NC(=O)[C@H](Cc2ccncc2)NC(=O)[C@H](Cc2ccc(OCC(=O)O)cc2)NC(=O)CSC[C@@H](C(=O)NCC(N)=O)NC(=O)[C@H](CO)NC(=O)[C@H](C(C)C)NC(=O)[C@H](CC2CCCCC2)NC(=O)[C@H](CC(N)=O)NC(=O)[C@@H](CC(C)C)NC(=O)[C@H](CCCN)NC(=O)[C@H](C(C)C)NC(=O)[C@H](Cc2ccc(-c3ccccc3)cc2)NC1=O [Compound 1338] ({CH2CO}-Y(Carboxymethyl)[4Pal]DWL[Bip]V[Orn][dL]N[Cha]VSCG-NH2; thioether N-14) | 38
Cc1cccc(C[C@@H]2NC(=O)[C@H](CC(=O)O)NC(=O)[C@H](Cc3ccc(OCC(=O)O)cc3)NC(=O)[C@H](Cc3ccncc3)NC(=O)CSC[C@@H](C(=O)N[C@@H](C)C(N)=O)NC(=O)[C@H]([C@@H](C)O)NC(=O)[C@H](C(C)C)NC(=O)[C@H](CC3CCCCC3)NC(=O)[C@H](CCN)NC(=O)[C@@H](CC(C)C)NC(=O)[C@H](CCCN)NC(=O)[C@H](CCCNC(N)=O)NC(=O)[C@H](Cc3ccc(-c4ccccc4)cc3)NC(=O)[C@H](C(C)C)NC2=O)c1 [Compound 1196] | 8.2
CC(C)C[C@H]1NC(=O)[C@H](CCCN)NC(=O)[C@H](Cc2ccc(C(=O)O)cc2)NC(=O)[C@H](Cc2ccc(-c3ccccc3)cc2)NC(=O)[C@H](CCc2ccccc2)NC(=O)[C@H](Cc2cccc(C(F)(F)F)c2)NC(=O)[C@H](CC(=O)O)NC(=O)[C@H](Cc2ccc(C(=O)O)cc2)NC(=O)[C@H](CN2CCOCC2)NC(=O)CSC[C@@H](C(=O)N[C@@H](CCN)C(N)=O)NC(=O)[C@H](CCC(=O)O)NC(=O)[C@H](C(C)C)NC(=O)[C@H](CC2CCCCC2)NC(=O)[C@H](CCN)NC1=O [Example 2744] ({CH2CO}-[Ala(morpholin-4-yl)][Phe(4-COOH)]D[Phe(3-CF3)][hPhe][Bip][Phe(4-COOH)][Orn][dL][Dab][Cha]VEC[Dab]-NH2; thioether N-14) | 3.4
